How the values were obtained:
[1] = test system: RKO (RKOp27) human colon adenocarcinoma cells; assay: Alamar Blue cell viability assay, anti-proliferative/cytotoxic activity on proliferating (uninduced) RKOp27 cells; assay type: cell-based; conditions: 72 hours incubation, absence of the inducer Ponasterone A, read-out: IC50 RKO p27 uninduced (proliferating)
Procedure, shortened: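 RKOp27 subclones seeded at 5000 cells/well, compounds added after 24 h in DMEM/10% FCS, quadruplicates, 72 h at 37 °C, 5% CO2. Alamar Blue fluorescence (ex 544/em 590 nm) normalised to untreated cells (1% DMSO medium) as 100%; IC50 from concentration-effect curves.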

[2] = test system: RKO colon adenocarcinoma cells (RKOp27) arrested by the expression of ectopic p27Kip1; assay: Alamar Blue cell viability assay on RKOp27 cells arrested by p27Kip1 expression induced by Ponasterone A; assay type: cell-based; conditions: Homo sapiens, 72 hours incubation, 10 μM Ponasterone A, read-out: IC50 RKO p27 induced (arrested)
Procedure, shortened: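 RKOp27 cells, 15000/well, held in DMEM with 10% FCS and with or without 10 μM Ponasterone A to induce p27Kip1 arrest. Compound dilutions added 24 h after seeding, then 72 h at 37 °C in quadruplicate. Alamar Blue fluorescence (544/590 nm) gave % viability relative to untreated cells.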

For `CCOc1ccccc1CCC(=O)Nc1sc2c(c1C#N)CCN(C(=O)COCCOC)C2` [Example 25, N-{3-Cyano-6-[2-(2-methoxy-ethoxy)-ethanoyl]-4,5,6,7-tetrahydro-thieno[2,3-c]pyridin-2-yl}-3-(2-ethoxy-phenyl)-propionamide], the IC50 [1] was ≤ 300 nM and the IC50 [2] was > 100000 nM.

`COc1ccccc1C(C)CC(=O)Nc1sc2c(c1C#N)CCN(C(=O)Cn1ccnc1C)C2` (racemic) [Example 127, (RS)—N-{3-Cyano-6-[2-(2-methyl-imidazol-1-yl)-ethanoyl]-4,5,6,7-tetrahydro-thieno[2,3-c]pyridin-2-yl}-3-(2-methoxy-phenyl)-butyramide] was tested, and the IC50 [1] was ≤ 300 nM and the IC50 [2] was ≥ 40000 nM.

With `COc1ccccc1CCC(=O)Nc1sc2c(c1C#N)CCN(C(=O)CCn1cnc(C)c1)C2` [Example 155, N-{3-Cyano-6-[3-(4-methyl-imidazol-1-yl)-propanoyl]-4,5,6,7-tetrahydro-thieno[2,3-c]pyridin-2-yl}-3-(2-methoxy-phenyl)-propionamide] the IC50 [1] was 300 to 2000 nM and the IC50 [2] was ≥ 10000 nM.

`COc1ccccc1C(C)CC(=O)Nc1sc2c(c1C#N)CCN(C(=O)Cc1cccnc1)C2` (racemic) [Example 66, (RS)—N-[3-Cyano-6-(2-pyridin-3-yl-ethanoyl)-4,5,6,7-tetrahydro-thieno[2,3-c]pyridin-2-yl]-3-(2-methoxy-phenyl)-butyramide] was tested, and the IC50 [1] was ≤ 300 nM and the IC50 [2] was > 100000 nM.

In the case of `CCOc1ccccc1C(C)CC(=O)Nc1sc2c(c1C#N)CCN(C(=O)CCn1ccnc1C)C2` (racemic) [Example 106, (RS)—N-{3-Cyano-6-[3-(2-methyl-imidazol-1-yl)-propanoyl]-4,5,6,7-tetrahydro-thieno[2,3-c]pyridin-2-yl}-3-(2-ethoxy-phenyl)-butyramide], the IC50 [1] is reported as 300 to 2000 nM and the IC50 [2] is reported as ≥ 10000 nM.

In the case of `CCOc1ccccc1C(C)CC(=O)Nc1sc2c(c1C#N)CCN(C(=O)CCn1cnc(C)c1)C2` (racemic) [Example 153, (RS)—N-{3-Cyano-6-[3-(4-methyl-imidazol-1-yl)-propanoyl]-4,5,6,7-tetrahydro-thieno[2,3-c]pyridin-2-yl}-3-(2-ethoxy-phenyl)-butyramide], the IC50 [1] is reported as 300 to 2000 nM and the IC50 [2] is reported as ≥ 10000 nM.

In the case of `COc1ccccc1C(C)CC(=O)Nc1sc2c(c1C#N)CCN(C(=O)CCn1ccnc1C)C2` (racemic) [Example 105, (RS)—N-{3-Cyano-6-[3-(2-methyl-imidazol-1-yl)-propanoyl]-4,5,6,7-tetrahydro-thieno[2,3-c]pyridin-2-yl}-3-(2-methoxy-phenyl)-butyramide], the IC50 [1] is reported as 300 to 2000 nM and the IC50 [2] is reported as ≥ 10000 nM.

For `COc1ccccc1C(C)CC(=O)Nc1sc2c(c1C#N)CCN(C(=O)Cc1ccccn1)C2` (racemic) [Example 62, (RS)—N-[3-Cyano-6-(2-pyridin-2-yl-ethanoyl)-4,5,6,7-tetrahydro-thieno[2,3-c]pyridin-2-yl]-3-(2-methoxy-phenyl)-butyramide], the IC50 [1] was ≤ 300 nM and the IC50 [2] was > 100000 nM.

For `COc1ccccc1C(C)CC(=O)Nc1sc2c(c1C#N)CCN(C(=O)Cc1ccncc1)C2` (racemic) [Example 70, (RS)—N-[3-Cyano-6-(2-pyridin-4-yl-ethanoyl)-4,5,6,7-tetrahydro-thieno[2,3-c]pyridin-2-yl]-3-(2-methoxy-phenyl)-butyramide], the IC50 [1] was ≤ 300 nM and the IC50 [2] was ≥ 40000 nM.

`COc1cccc(CCC(=O)Nc2sc3c(c2C#N)CCN(C(=O)CCc2nccn2C)C3)c1` [Example 115, N-{3-Cyano-6-[3-(1-methyl-1H-imidazol-2-yl)-propanoyl]-4,5,6,7-tetrahydro-thieno[2,3-c]pyridin-2-yl}-3-(3-methoxy-phenyl)-propionamide] was tested, and the IC50 [1] was 300 to 2000 nM and the IC50 [2] was ≥ 40000 nM.

In the case of `COc1cccc(CCC(=O)Nc2sc3c(c2C#N)CCN(C(=O)CCc2ccncc2)C3)c1` [Example 15, N-[3-Cyano-6-(3-pyridin-4-yl-propanoyl)-4,5,6,7-tetrahydro-thieno[2,3-c]pyridin-2-yl]-3-(3-methoxy-phenyl)-propionamide], the IC50 [1] is reported as 300 to 2000 nM and the IC50 [2] is reported as > 100000 nM.

`COc1ccccc1CCC(=O)Nc1sc2c(c1C#N)CCN(C(=O)CCn1cc(C)nc1C)C2` [Example 161, N-{3-Cyano-6-[3-(2,4-dimethyl-imidazol-1-yl)-propanoyl]-4,5,6,7-tetrahydro-thieno[2,3-c]pyridin-2-yl}-3-(2-methoxy-phenyl)-propionamide] was tested, and the IC50 [1] was 300 to 2000 nM and the IC50 [2] was ≥ 10000 nM.

With `CCOc1ccccc1C(C)CC(=O)Nc1sc2c(c1C#N)CCN(C(=O)CCn1ccnc1)C2` (racemic) [Example 100, (RS)—N-[3-Cyano-6-(3-imidazol-1-yl-propanoyl)-4,5,6,7-tetrahydro-thieno[2,3-c]pyridin-2-yl]-3-(2-ethoxy-phenyl)-butyramide] the IC50 [1] was 300 to 2000 nM and the IC50 [2] was ≥ 40000 nM.

In the case of `COc1ccc(C)cc1CCC(=O)Nc1sc2c(c1C#N)CCN(C(=O)CCc1cnccc1OC)C2` [Example 41, N-{3-Cyano-6-[3-(4-methoxy-pyridin-3-yl)-propanoyl]-4,5,6,7-tetrahydro-thieno[2,3-c]pyridin-2-yl}-3-(2-methoxy-5-methyl-phenyl)-propionamide], the IC50 [1] is reported as 300 to 2000 nM and the IC50 [2] is reported as ≥ 40000 nM.

`COc1ccc(C)cc1CCC(=O)Nc1sc2c(c1C#N)CCN(C(=O)Cn1cc(C)nc1C)C2` [Example 149, N-{3-Cyano-6-[2-(2,4-dimethyl-imidazol-1-yl)-ethanoyl]-4,5,6,7-tetrahydro-thieno[2,3-c]pyridin-2-yl}-3-(2-methoxy-5-methyl-phenyl)-propionamide] was tested, and the IC50 [1] was 300 to 2000 nM and the IC50 [2] was ≥ 10000 nM.

`CCCC(=O)N1CCc2c(sc(NC(=O)CC(C)c3cccc(OC)c3)c2C#N)C1` (racemic) [Example 87, (RS)—N-(6-Butyryl-3-cyano-4,5,6,7-tetrahydro-thieno[2,3-c]pyridin-2-yl)-3-(3-methoxy-phenyl)-butyramide] was tested, and the IC50 [1] was 300 to 2000 nM and the IC50 [2] was > 100000 nM.

For `CCCC(=O)N1CCc2c(sc(NC(=O)CCc3ccccc3OCC)c2C#N)C1` [Example 24, N-(6-Butyryl-3-cyano-4,5,6,7-tetrahydro-thieno[2,3-c]pyridin-2-yl)-3-(2-ethoxy-phenyl)-propionamide], the IC50 [1] was ≤ 300 nM and the IC50 [2] was > 100000 nM.

With `CCOc1ccccc1C(C)CC(=O)Nc1sc2c(c1C#N)CCN(C(=O)CCc1cccnc1)C2` (racemic) [Example 78, (RS)—N-[3-Cyano-6-(3-pyridin-3-yl-propanoyl)-4,5,6,7-tetrahydro-thieno[2,3-c]pyridin-2-yl]-3-(2-ethoxy-phenyl)-butyramide] the IC50 [1] was 300 to 2000 nM and the IC50 [2] was ≥ 40000 nM.

`COc1cccc(C(C)CC(=O)Nc2sc3c(c2C#N)CCN(C(=O)Cc2cccnc2)C3)c1` (racemic) [Example 64, (RS)—N-[3-Cyano-6-(2-pyridin-3-yl-ethanoyl)-4,5,6,7-tetrahydro-thieno[2,3-c]pyridin-2-yl]-3-(3-methoxy-phenyl)-butyramide] was tested, and the IC50 [1] was 300 to 2000 nM and the IC50 [2] was ≥ 40000 nM.

With `COc1cccc(CCC(=O)Nc2sc3c(c2C#N)CCN(C(=O)Cn2ccnc2)C3)c1` [Example 55, N-[3-Cyano-6-(2-imidazol-1-yl-ethanoyl)-4,5,6,7-tetrahydro-thieno[2,3-c]pyridin-2-yl]-3-(3-methoxy-phenyl)-propionamide] the IC50 [1] was 300 to 2000 nM and the IC50 [2] was ≥ 40000 nM.

For `COc1ccccc1C(C)CC(=O)Nc1sc2c(c1C#N)CCN(C(=O)Cn1cnc(C)c1)C2` (racemic) [Example 135, (RS)—N-{3-Cyano-6-[2-(4-methyl-imidazol-1-yl)-ethanoyl]-4,5,6,7-tetrahydro-thieno[2,3-c]pyridin-2-yl}-3-(2-methoxy-phenyl)-butyramide], the IC50 [1] was 300 to 2000 nM and the IC50 [2] was ≥ 40000 nM.

With `CCOc1ccccc1CCC(=O)Nc1sc2c(c1C#N)CCN(C(=O)CCn1cnc(C)c1)C2` [Example 156, N-{3-Cyano-6-[3-(4-methyl-imidazol-1-yl)-propanoyl]-4,5,6,7-tetrahydro-thieno[2,3-c]pyridin-2-yl}-3-(2-ethoxy-phenyl)-propionamide] the IC50 [1] was ≤ 300 nM and the IC50 [2] was ≥ 10000 nM.

`COc1cccc(CCC(=O)Nc2sc3c(c2C#N)CCN(C(=O)Cc2ccncc2)C3)c1` [Example 72, N-[3-Cyano-6-(2-pyridin-4-yl-ethanoyl)-4,5,6,7-tetrahydro-thieno[2,3-c]pyridin-2-yl]-3-(3-methoxy-phenyl)-propionamide] was tested, and the IC50 [1] was ≤ 300 nM and the IC50 [2] was > 100000 nM.

`CCOc1ccccc1CCC(=O)Nc1sc2c(c1C#N)CCN(C(=O)Cc1cccnc1)C2` [Example 27, N-[3-Cyano-6-(2-pyridin-3-yl-ethanoyl)-4,5,6,7-tetrahydro-thieno[2,3-c]pyridin-2-yl]-3-(2-ethoxy-phenyl)-propionamide] was tested, and the IC50 [1] was ≤ 300 nM and the IC50 [2] was ≥ 40000 nM.
